Results on eight molecules are retold here after patent US4673562A, “Bisamide bisthiol compounds useful for making technetium radiodiagnostic renal agents” (The Children's Medical Center Corporation, priority 1983, dated 1987).

A short description of data set [1]: Biodistribution in Swiss Webster albino male mice, coinjected with 131I-OIH (Tables IV, V). The data set is classed as in vivo, mouse. The protocol:
The diastereomers (XVIA) and (XVIB) were synthesized and then isolated by high pressure liquid chromatography as described previously, and their biodistributions obtained in groups in six Swiss Webster albino male mice. […] The mice were then placed in metabolic cages to collect urine. At 10 and 120 minutes after injection, the penis was ligated, the mice killed with chloroform vapor, and the organs disected.

The nature of data set [2]: Average % total dose in urine samples of dogs (Table II). The data set is classed as in vivo, dog. Conditions: mean. An excerpt:
The diastereomeric ^99m Tc complexes formed by reduction of pertechnetate in the presence of (2-benzoylthioacetyl)- glycyl-(S-benzoyl)-cysteine methyl ester (compound XVI) and N-2-(benzoylthio)ethyl)-N'-1-carbomethoxy-(2-benzoylthio)ethyl]oxamide (compound XXXI) were synthesized and separated by high pressure liquid chromatography. The two fractions collected from the products of synthesis in each case were denoted (XVIA), (XVIB), (XXXIA), and (XXXIB), respectively.
Samples of each fraction were mixed with appropriate amounts of ^131 I-OIH and coinjected into normal dogs placed under a gamma camera. Images were recorded at 1, 5, 10, 15, 20, 25, 30 and 35 minutes after administration. The initial image at one minute was used to collect 750,000 counts. All subsequent images were exposed for the same length of time as this first image, and the number of counts noted. Immediately after each count, a urine sample was drawn from the bladder via a indwelling catheter, and the ^99m Tc ANd ^131 I activity determined using an ionization chamber. In this way, the counts collected in the camera images cound be related to absolute activity levels (mCi or μCi). The animals were then observed until the urine samples were free of ^99m Tc.
In Table II can be seen the average % total dose valus observed in the urine samples collected at each time point. Also quoted in parentheses are the standard deviation and standard error of the mean.

The nature of data set [3]: Gamma camera: % total dose in bladder, 99mTc complexes coinjected with 131I-OIH into normal dogs (Tables I, III). Type of data set: in vivo, dog. On the set-up: Comparison of % total dose in bladder versus 131I-OIH, column headed by drawing 19 (± s.d.): unit not given here. Conditions: for % Total Dose In Bladder (gamma camera data): single animals. As to the method:
The two fractions collected from the products of synthesis in each case were denoted (XVIA), (XVIB), (XXXIA), and (XXXIB), respectively.
Images were recorded at 1, 5, 10, 15, 20, 25, 30 and 35 minutes after administration. The initial image at one minute was used to collect 750,000 counts. All subsequent images were exposed for the same length of time as this first image, and the number of counts noted. […] In this way, the counts collected in the camera images cound be related to absolute activity levels (mCi or μCi). The animals were then observed until the urine samples were free of ^99m Tc.
The values represent the calculated % total dose in the camera region of interest set over the bladder.

For data set [4] the following is noted: cited from earlier work.
A short description of data set [5]: Solubility of bisthiol compound. The data set is classed as physicochemical.
For data set [6] the following is noted: in vivo; cited from earlier work.
[7] abbreviates: Table V, 10 min, XVI B and 131I-OIH coinjected.
Where [8] appears, read: Table V, 120 min, XVI B and 131I-OIH coinjected.
Setting [9] is: Table IV, 10 min, XVI A and 131I-OIH coinjected.
The mark [10] stands for this setting: Table IV, 120 min, XVI A and 131I-OIH coinjected.

Values joined by “and” are separate entries in the source; they are usually repeats but may differ in a detail not shown here. Equal values may be shown once.

For the molecule `O=C(O)C1C[S][Tc-]23(=[O])[S]CC(=O)[N]2CC(=O)[N]13` (single isomer, unassigned) [XVIB], the entries for the “Blood, % total dose per organ ± s.d.” value in data set [1] (setting [7]) and in data set [1] (setting [8]) were 1.47 ± 0.72 % total dose per organ and 0.13 ± 0.10 % total dose per organ, respectively. The “Intestine, % total dose per organ ± s.d.” value in data set [1] (setting [7]) is listed as 0.48 ± 0.18 % total dose per organ; in data set [1] (setting [8]), 0.40 ± 0.17 % total dose per organ. Further, the “Kidneys, % total dose per organ ± s.d.” value in data set [1] (setting [7]) came out at 4.41 ± 3.6 % total dose per organ; in data set [1] (setting [8]), 0.08 ± 0.07 % total dose per organ. In addition, the entries for the “Liver, % total dose per organ ± s.d.” value in data set [1] (setting [7]) and in data set [1] (setting [8]) were 0.79 ± 0.49 % total dose per organ and 0.11 ± 0.06 % total dose per organ, respectively. Further, the results for the “Stomach, % total dose per organ ± s.d.” value in data set [1] (setting [7]) and in data set [1] (setting [8]) were 0.06 ± 0.03 % total dose per organ and 0.07 ± 0.12 % total dose per organ, respectively. In addition, the “Urine, % total dose ± s.d.” value in data set [1] (setting [7]) was determined as 79.32 ± 5.1 % total dose per organ; in data set [1] (setting [8]), 91.47 ± 1.1 % total dose per organ. Further, the “clearance into the urine” value in data set [1] (mice, versus 131I-OIH) is “cleared rapidly into the urine at comparable rates to each other and to the radiopharmaceutical ^131 I-OIH”. Also, the “Average % Total Dose in Urine Samples” value in data set [2] (5 min post injection, 5 min) came out at 13.98 % total dose; in data set [2] (10 min post injection, 10 min), 32.94 % total dose; in data set [2] (15 min post injection, 15 min), 44.29 % total dose; in data set [2] (20 min post injection, 20 min) it was 51.40 % total dose; in data set [2] (25 min post injection, 25 min) it was 56.34 % total dose; in data set [2] (30 min post injection, 30 min), 62.55 % total dose. In addition, the “Average % Total Dose in Urine Samples” value in data set [2] (35 min post injection, 35 min) is on record as 66.44 % total dose. Further, the “% Total Dose In Bladder (gamma camera data)” value in data set [3] (5 min post injection, normal dogs, 5 min) is 12.31 % total dose and 10.03 % total dose and 19.60 % total dose; in data set [3] (10 min post injection, normal dogs, 10 min) it was 28.53 % total dose and 33.78 % total dose and 36.51 % total dose; in data set [3] (15 min post injection, normal dogs, 15 min), 39.47 % total dose and 45.88 % total dose and 47.52 % total dose; in data set [3] (20 min post injection, normal dogs, 20 min), 45.09 % total dose and 53.55 % total dose and 55.57 % total dose; in data set [3] (25 min post injection, normal dogs, 25 min), 48.09 % total dose and 60.94 % total dose and 59.98 % total dose; in data set [3] (30 min post injection, normal dogs, 30 min), 53.05 % total dose and 64.60 % total dose and 70.00 % total dose. Moreover, the “% Total Dose In Bladder (gamma camera data)” value in data set [3] (35 min post injection, normal dogs, 35 min) was 54.63 % total dose and 73.12 % total dose and 71.57 % total dose. In addition, the “% total dose in bladder at 35 minutes, Average 99mTc (± s.d)” value in data set [3] (Table III, 35 min, average of dogs) came out at 66.44 % total dose. The “Comparison of % total dose in bladder versus 131I-OIH, column headed by drawing 19 (± s.d.)” value in data set [3] (Table III, 35 min, dogs) came to 92.25. For the same molecule, the “pharmacokinetic behavior of the diastereomers” value in data set [3] (normal dogs) is reported as “identical”. Also, in data set [3] (normal dogs, versus 131I-OIH), the “rate of excretion in the urine” value is “comparable rates of excretion to each other and to OIH”.

`O=C([O-])CN(CCN(CC(=O)[O-])CC(=O)[O-])CCN(CC(=O)[O-])CC(=O)[O-].[99Tc+4]` [Compound 99mTc-DTPA]: the route of excretion entry in data set [4] (in vivo) is on record as “excreted exclusively by glomerular filtration”.

As for `O=C(O)CNC(=O)c1ccccc1[131I]` [Compound 131I-OIH, ^131 I-ortho-iodohippurate, reference compound], in data set [1] (setting [9]), the “Blood, % total dose per organ ± s.d.” value is given as 2.80 ± 0.24 % total dose per organ; the “Intestine, % total dose per organ ± s.d.” value came to 1.15 ± 0.23 % total dose per organ; the “Kidneys, % total dose per organ ± s.d.” value came to 2.18 ± 0.29 % total dose per organ; the “Liver, % total dose per organ ± s.d.” value worked out at 1.36 ± 0.24 % total dose per organ. Moreover, in data set [1] (setting [9]), the “Stomach, % total dose per organ ± s.d.” value was found to be 0.36 ± 0.10 % total dose per organ and the “Urine, % total dose ± s.d.” value is on record as 64.80 ± 7.31 % total dose per organ. Besides, in data set [1] (setting [10]), the “Blood, % total dose per organ ± s.d.” value is listed as 0.22 ± 0.04 % total dose per organ; the “Intestine, % total dose per organ ± s.d.” value is 0.45 ± 0.19 % total dose per organ; the “Kidneys, % total dose per organ ± s.d.” value came to 0.01 ± 0.06 % total dose per organ; the “Liver, % total dose per organ ± s.d.” value amounted to 0.14 ± 0.03 % total dose per organ. For the same molecule, in data set [1] (setting [10]), the “Stomach, % total dose per organ ± s.d.” value was 0.60 ± 0.19 % total dose per organ and the “Urine, % total dose ± s.d.” value is 89.86 ± 3.03 % total dose per organ. Moreover, in data set [1] (setting [7]), the “Blood, % total dose per organ ± s.d.” value is given as 2.11 ± 0.62 % total dose per organ; the “Intestine, % total dose per organ ± s.d.” value is 0.91 ± 0.27 % total dose per organ; the “Kidneys, % total dose per organ ± s.d.” value stood at 3.09 ± 3.36 % total dose per organ; the “Liver, % total dose per organ ± s.d.” value came out at 1.20 ± 0.41 % total dose per organ. Besides, in data set [1] (setting [7]), the “Stomach, % total dose per organ ± s.d.” value was 0.42 ± 0.63 % total dose per organ and the “Urine, % total dose ± s.d.” value is reported as 78.86 ± 5.1 % total dose per organ. In data set [1] (setting [8]), the “Blood, % total dose per organ ± s.d.” value is given as 0.19 ± 0.08 % total dose per organ; the “Intestine, % total dose per organ ± s.d.” value came to 0.24 ± 0.04 % total dose per organ; the “Kidneys, % total dose per organ ± s.d.” value was 0.05 ± 0.04 % total dose per organ; the “Liver, % total dose per organ ± s.d.” value was found to be 0.10 ± 0.04 % total dose per organ. Also, in data set [1] (setting [8]), the “Stomach, % total dose per organ ± s.d.” value was found to be 0.71 ± 0.27 % total dose per organ and the “Urine, % total dose ± s.d.” value came to 93.25 ± 0.89 % total dose per organ. Besides, in data set [4] (bolus injection), the “time to maximum uptake in normal kidneys” value was “within the first five minutes”. In addition, the “clearance relative to PAH” value in data set [4] (in vivo) is “lower clearance than PAH”. Besides, in data set [4] (normally hydrated patient, at thirty minutes, 30 min), the “injected dose found in the urine” value is on record as “approximately 70%”. In data set [4] (normally hydrated patient, bolus injection), the “clearance from the renal parenchyma and collecting system” value is on record as “within thirty minutes”. In addition, in data set [3] (Table III, 35 min, average of dogs, coinjected with the 99mTc complex of the line), the “% total dose in bladder at 35 minutes, Average 131I (± s.d)” value is 73.60 % total dose and 72.02 % total dose and 76.69 % total dose and 80.87 % total dose. Also, in data set [3] (Table III, 35 min, single dogs, coinjected with the 99mTc complex of the line), the “% total dose in bladder at 35 minutes, 131I” value is 73.14 % total dose and 77.31 % total dose and 70.39 % total dose and 61.75 % total dose and 77.21 % total dose and 77.10 % total dose and 74.35 % total dose and 82.53 % total dose and 73.20 % total dose and 87.52 % total dose and 75.71 % total dose and 79.39 % total dose.

As for `Nc1ccc(C(=O)NCC(=O)O)cc1` [PAH, Paraaminohippuric acid], in data set [4] (kidneys), the “elimination by glomerular filtration” value is on record as 20% and the “elimination by tubular secretion” value is 80%. The “renal plasma flow as measured by PAH” value in data set [4] (normal adult) is recorded as “about 575 ml/minute”. In data set [4] (normal kidney), the “extraction by the normal kidney” value is listed as 90%.

Consider `O=C(NCCS)C(=O)NCCS` [XXXII, N, N'-bis(2-mercaptoethyl)oxamide], for which, in data set [5], the solubility result is “soluble only in DMSO, trifluoroacetic acid and aqueous alkali”.

For `O=C1C[S][Tc-]23(=[O])[S]CC(=O)[N]2CC[N]13` [[TcO(ema)]-], the “excretion route and metabolic state” value in data set [6] was “excreted into both the urine and bile in a chemically unchanged form”.

With `O=C(O)Cn1cc(I)c(=O)c(I)c1` [iodo-pyracet], the “removal from circulation by the liver” value in data set [4] (in vivo) is listed as “partial removal from the circulation by the liver”.

Consider `[O]=[Tc](=[O])(=[O])[O-]` [pertechnetate], for which, in data set [4] (in vivo), the “absolute concentration in the renal parenchyma” value is given as “low”, the “filtered activity reabsorbed by the renal tubules” value is recorded as “about 86%” and the urinary excretion entry is “relatively slow”.
